Reference: patent US20200087248A1, “Fluoroallylamine Derivative And Use Thereof” (SICHUAN KELUN-BIOTECH BIOPHARMACEUTICAL CO., LTD., priority 2017, published 2020)
Where a name gives a salt, the structure may show the parent alone.

How the values were obtained:
VAP-1 = molecular target: T1, VAP-1 (Homo sapiens, UniProt Q16853); experiment: Inhibition of the enzymatic activity of VAP-1 in vitro (Amplex Red); format: biochemical; details: VAP-1 protein about 20 nM, 10 min pre-incubation, benzylamine substrate; read-out: IC50, inhibition against the enzymatic activity of VAP-1
T1 construct: purchased R&D Systems
T1 sequence (Q16853 1-763): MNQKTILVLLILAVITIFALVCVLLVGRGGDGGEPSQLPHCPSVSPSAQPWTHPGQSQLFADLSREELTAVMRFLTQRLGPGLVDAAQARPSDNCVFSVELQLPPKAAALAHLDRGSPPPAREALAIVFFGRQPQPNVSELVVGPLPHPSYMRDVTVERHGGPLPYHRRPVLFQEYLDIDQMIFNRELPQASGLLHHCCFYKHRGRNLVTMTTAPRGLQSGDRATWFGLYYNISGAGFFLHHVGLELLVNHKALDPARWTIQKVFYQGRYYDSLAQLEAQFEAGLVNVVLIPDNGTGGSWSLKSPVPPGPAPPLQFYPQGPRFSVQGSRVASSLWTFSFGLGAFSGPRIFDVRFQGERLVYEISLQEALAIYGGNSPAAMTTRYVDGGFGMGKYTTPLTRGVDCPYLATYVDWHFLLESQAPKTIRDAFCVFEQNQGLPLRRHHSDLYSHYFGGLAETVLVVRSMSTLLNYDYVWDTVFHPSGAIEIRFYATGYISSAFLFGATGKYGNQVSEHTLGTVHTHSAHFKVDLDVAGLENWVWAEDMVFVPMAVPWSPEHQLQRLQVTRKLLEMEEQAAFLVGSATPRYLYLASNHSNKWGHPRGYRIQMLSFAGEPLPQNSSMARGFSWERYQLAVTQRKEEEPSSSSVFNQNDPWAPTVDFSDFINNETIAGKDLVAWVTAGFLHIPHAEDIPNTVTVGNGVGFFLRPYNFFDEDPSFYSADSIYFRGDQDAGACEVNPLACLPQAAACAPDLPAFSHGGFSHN
Outline: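 About 20 nM recombinant VAP-1 preincubated with compound 10 min at RT in 50 mM PBS pH 7.4; reaction started with […] benzylamine, 1 U/mL HRP and 200 μM Amplex Red. Kinetic fluorescence (Ex/Em 540/590 nm) slope gave rate; IC50 by four-parameter fit.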

hERG = molecular target: T2, hERG (Homo sapiens, UniProt Q12809); experiment: hERG fluorescence polarization inhibition experiment; details: hERG cell membrane, 25° C. 2 hours, read-out: hERG (IC50 range, competitive binding vs tracer)
T2 construct: purchased ThermoFisher; host or cells: hERG cell membrane supplied with the kit
T2 sequence (Q12809 whole entry): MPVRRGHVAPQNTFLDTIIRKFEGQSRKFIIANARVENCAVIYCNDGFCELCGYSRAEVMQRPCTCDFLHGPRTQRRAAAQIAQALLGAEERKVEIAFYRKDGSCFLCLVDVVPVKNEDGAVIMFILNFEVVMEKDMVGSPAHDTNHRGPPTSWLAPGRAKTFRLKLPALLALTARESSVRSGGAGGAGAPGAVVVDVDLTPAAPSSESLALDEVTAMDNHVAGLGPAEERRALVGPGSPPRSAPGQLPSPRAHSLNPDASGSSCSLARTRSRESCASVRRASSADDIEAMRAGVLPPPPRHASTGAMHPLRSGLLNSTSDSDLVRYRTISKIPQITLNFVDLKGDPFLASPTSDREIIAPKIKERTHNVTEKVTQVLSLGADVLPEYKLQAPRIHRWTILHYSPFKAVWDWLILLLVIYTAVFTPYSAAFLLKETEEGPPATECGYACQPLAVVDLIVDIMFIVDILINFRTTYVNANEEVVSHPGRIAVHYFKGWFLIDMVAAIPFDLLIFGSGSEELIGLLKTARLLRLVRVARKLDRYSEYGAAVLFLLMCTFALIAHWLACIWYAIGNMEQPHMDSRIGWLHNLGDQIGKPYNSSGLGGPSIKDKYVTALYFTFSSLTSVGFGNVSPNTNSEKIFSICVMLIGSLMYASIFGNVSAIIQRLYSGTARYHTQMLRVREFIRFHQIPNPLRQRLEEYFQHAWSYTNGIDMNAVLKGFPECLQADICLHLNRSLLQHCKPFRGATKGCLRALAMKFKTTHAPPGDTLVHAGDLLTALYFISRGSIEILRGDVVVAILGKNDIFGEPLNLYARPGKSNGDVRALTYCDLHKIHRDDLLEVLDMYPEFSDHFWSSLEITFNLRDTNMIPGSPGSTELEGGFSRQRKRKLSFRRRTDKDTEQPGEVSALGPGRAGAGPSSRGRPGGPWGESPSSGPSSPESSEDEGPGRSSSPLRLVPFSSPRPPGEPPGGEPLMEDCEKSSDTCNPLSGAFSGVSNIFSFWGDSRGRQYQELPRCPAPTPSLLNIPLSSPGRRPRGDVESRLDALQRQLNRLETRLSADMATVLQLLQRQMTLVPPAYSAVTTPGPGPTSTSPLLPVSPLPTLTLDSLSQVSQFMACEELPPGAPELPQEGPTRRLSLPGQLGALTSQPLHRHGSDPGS
Outline: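 Fluorescence-polarization tracer displacement on hERG cell membranes; compound and high-affinity tracer incubated 2 h at 25 °C. % inhibition from mP relative to buffer (0%) and 30 μM E4031 (100%) over several concentrations, giving an IC50 range.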

| IC50 (VAP-1) | Compound | IC50 (hERG) |
| --- | --- | --- |
| 2.85 ± 0.3 nM | CC1(C)Cc2cc(OC/C(=C/F)CN)ccc2C(=O)N1 [HC38-E, (E)-6-((2-(aminomethyl)-3-fluoroallyl)oxy)-3,3-dimethyl-3,4-dihydroisoquinolin-1(2H)-one hydrochloride] | – |
| 1.6 ± 0.2 nM | NC/C(=C\F)COc1ccc(C(=O)Nc2ccccc2)cc1 [TM1-E, (E)-N-phenyl-4-((2-aminomethyl-3-fluoroallyl)oxy)-benzamide trifluoroacetate] | > 10000 nM |
| 3 ± 0.7 nM | NC/C(=C\F)COc1ccc2c(c1)C(=O)CC2 [TM7-E, (E)-6-((2-aminomethyl-3-fluoroallyl)oxy)-2,3-dihydro-1-indenone trifluoroacetate] | > 10000 nM |
| 3.7 ± 0.8 nM | NC/C(=C/F)COc1ccc2c(c1)CCNC2=O [TM26-Z, (Z)-6-((2-aminomethyl-3-fluoroallyl)oxy)-3,4-dihydroisoquinolin-1(2H)-one trifluoroacetate] | > 10000 nM |
| 1.2 ± 0.2 nM | NC/C(=C\F)COc1ccc(-c2ncccn2)cc1 [TM39-E, (E)-2-(4-(2-pyrimidyl)phenoxymethyl)-3-fluoroallylamine trifluoroacetate] | > 10000 nM |
| 4.3 ± 0.6 nM | NC/C(=C\F)COc1ccc(C(=O)NC2CCOCC2)cc1 [TM76-E, (E)-N-(tetrahydro-2H-pyran-4-yl)-4-((2-aminomethyl-3-fluoroallyl)oxy)-benzamide trifluoroacetate] | > 10000 nM |
| 6.5 ± 1.8 nM | NC/C(=C/F)COc1ccc(C(=O)NCc2ccccn2)cc1 [TM112-Z, (Z)-4-((2-aminomethyl-3-fluoroallyl)oxy)-N-(pyridin-2-ylmethyl)benzamide trifluoroacetate] | > 10000 nM |

| Compound | IC50 (VAP-1) | IC50 (hERG) |
| --- | --- | --- |
| (E)-6-((2-(methylamino)-3-fluoroallyl)oxy)-2-methyl-3,4-dihydroisoquinolin-1(2H)-one trifluoroacetate [TM66-E] | 2 ± 0.4 nM | > 10000 nM |
| (E)-6-((2-(methylamino)-3-fluoroallyl)oxy)-3,3-dimethyl-3,4-dihydro-isoquinolin-1(2H)-one trifluoroacetate [TM38-E] | 4.7 ± 1.1 nM | > 10000 nM |
